# Assay results published in PMC7265341, “Quantifying CDK inhibitor selectivity in live cells” (Nature Communications, 2020).
# Where two headings read alike, the source gives them in different places.
# How the values were obtained:
# CDK19/Cyclin C = CDK19/Cyclin C (Homo sapiens, UniProt Q9BWU1); assay: NanoBRET live-cell target engagement, NanoLuc-CDK19/Cyclin C in HEK-293; conditions: 10µM
# CDK6/Cyclin D1 = CDK6/Cyclin D1 (Homo sapiens, UniProt Q00534); assay: NanoBRET live-cell target engagement, NanoLuc-CDK6/Cyclin D1 in HEK-293; assay type: binding; conditions: CDK6/D1
# CDK8/Cyclin C = CDK8/Cyclin C (Homo sapiens, UniProt P49336); assay: NanoBRET live-cell target engagement, NanoLuc-CDK8/Cyclin C in HEK-293; assay type: binding; conditions: CDK8/C, 10µM
# CDK3/Cyclin E1 = CDK3/Cyclin E1 (Homo sapiens, UniProt Q00526); assay: NanoBRET live-cell target engagement, CDK3-NanoLuc/Cyclin E1 in HEK-293; assay type: binding; conditions: 10µM
# CDK17/Cyclin Y = CDK17/Cyclin Y (Homo sapiens, UniProt Q00537); assay: NanoBRET live-cell target engagement, CDK17-NanoLuc/Cyclin Y in HEK-293; assay type: binding; conditions: 10µM
# Chain of CDK17/Cyclin Y (Q00537 whole entry): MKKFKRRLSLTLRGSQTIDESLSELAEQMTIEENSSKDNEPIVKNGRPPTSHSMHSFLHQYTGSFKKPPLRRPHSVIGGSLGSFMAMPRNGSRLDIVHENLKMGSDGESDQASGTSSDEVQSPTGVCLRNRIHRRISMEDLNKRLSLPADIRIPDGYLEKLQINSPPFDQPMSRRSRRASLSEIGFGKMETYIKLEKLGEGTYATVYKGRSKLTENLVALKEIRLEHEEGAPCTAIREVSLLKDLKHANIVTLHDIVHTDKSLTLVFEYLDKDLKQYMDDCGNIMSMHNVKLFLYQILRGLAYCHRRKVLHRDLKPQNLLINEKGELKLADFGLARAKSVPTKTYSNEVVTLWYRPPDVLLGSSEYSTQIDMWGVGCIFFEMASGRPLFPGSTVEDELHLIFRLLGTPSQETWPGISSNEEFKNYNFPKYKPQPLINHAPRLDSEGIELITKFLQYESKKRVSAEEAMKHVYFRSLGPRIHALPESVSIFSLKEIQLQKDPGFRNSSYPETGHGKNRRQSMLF
# Chain of CDK17/Cyclin Y (Q8ND76 whole entry partner): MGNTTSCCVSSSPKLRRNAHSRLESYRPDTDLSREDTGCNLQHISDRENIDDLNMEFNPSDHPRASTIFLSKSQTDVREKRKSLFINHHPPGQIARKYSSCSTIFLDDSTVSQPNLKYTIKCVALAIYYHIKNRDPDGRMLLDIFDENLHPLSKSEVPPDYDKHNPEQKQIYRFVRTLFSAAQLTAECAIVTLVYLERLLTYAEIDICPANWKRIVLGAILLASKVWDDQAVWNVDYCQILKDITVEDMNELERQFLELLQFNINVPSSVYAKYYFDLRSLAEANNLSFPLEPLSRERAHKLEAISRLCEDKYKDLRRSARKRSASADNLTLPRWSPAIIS
# CDK12/Cyclin K = CDK12/Cyclin K (Homo sapiens, UniProt Q9NYV4); assay: NanoBRET live-cell target engagement, CDK12-NanoLuc/Cyclin K in HEK-293; assay type: binding; conditions: 10µM
# CDK11B/Cyclin L2 = CDK11B/Cyclin L2 (Homo sapiens, UniProt P21127); assay: NanoBRET live-cell target engagement, CDK11B-NanoLuc/Cyclin L2 in HEK-293; assay type: binding; conditions: 10µM
# Chain of CDK11B/Cyclin L2 (P21127 1-782 isoform P21127-2): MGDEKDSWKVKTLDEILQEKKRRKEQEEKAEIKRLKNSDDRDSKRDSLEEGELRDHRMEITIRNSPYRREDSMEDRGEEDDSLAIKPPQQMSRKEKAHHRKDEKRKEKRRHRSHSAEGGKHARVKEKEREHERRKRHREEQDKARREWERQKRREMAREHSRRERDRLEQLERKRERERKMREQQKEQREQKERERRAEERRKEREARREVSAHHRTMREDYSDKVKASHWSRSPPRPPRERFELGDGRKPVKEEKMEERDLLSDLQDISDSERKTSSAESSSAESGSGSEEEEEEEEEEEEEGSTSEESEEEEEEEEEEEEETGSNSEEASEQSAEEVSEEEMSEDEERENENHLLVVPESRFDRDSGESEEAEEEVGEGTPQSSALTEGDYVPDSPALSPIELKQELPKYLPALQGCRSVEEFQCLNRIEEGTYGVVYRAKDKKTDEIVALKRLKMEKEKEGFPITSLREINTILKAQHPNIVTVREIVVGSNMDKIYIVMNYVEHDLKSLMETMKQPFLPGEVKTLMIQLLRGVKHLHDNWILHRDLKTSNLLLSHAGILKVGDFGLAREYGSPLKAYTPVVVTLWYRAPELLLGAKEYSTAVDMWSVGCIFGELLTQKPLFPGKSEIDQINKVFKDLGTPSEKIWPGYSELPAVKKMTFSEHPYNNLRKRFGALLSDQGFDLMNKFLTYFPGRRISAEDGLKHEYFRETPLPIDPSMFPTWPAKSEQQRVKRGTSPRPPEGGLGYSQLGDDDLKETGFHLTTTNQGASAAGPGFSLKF
# CDK7 = CDK7 (Homo sapiens, UniProt P50613); assay: NanoBRET live-cell target engagement, NanoLuc-CDK7 in HEK-293; assay type: binding; conditions: 10µM
# CDK2/Cyclin E1 = CDK2/Cyclin E1 (Homo sapiens, UniProt P24941); assay: NanoBRET live-cell target engagement, CDK2-NanoLuc/Cyclin E1 in HEK-293; assay type: binding; conditions: CDK2/E1
# CDK13/Cyclin K = CDK13/Cyclin K (Homo sapiens, UniProt Q14004); assay: NanoBRET live-cell target engagement, CDK13-NanoLuc/Cyclin K in HEK-293; assay type: binding; conditions: CDK13/K, 10µM
# CDK10/Cyclin L2 = CDK10/Cyclin L2 (Homo sapiens, UniProt Q15131); assay: NanoBRET live-cell target engagement, CDK10-NanoLuc/Cyclin L2 in HEK-293; conditions: 10µM
# CDK15/Cyclin Y = CDK15/Cyclin Y (Homo sapiens, UniProt Q96Q40); assay: NanoBRET live-cell target engagement, NanoLuc-CDK15/Cyclin Y in HEK-293; assay type: binding; conditions: for IC50: CDK15/Y
# Chain of CDK15/Cyclin Y (Q96Q40 whole entry): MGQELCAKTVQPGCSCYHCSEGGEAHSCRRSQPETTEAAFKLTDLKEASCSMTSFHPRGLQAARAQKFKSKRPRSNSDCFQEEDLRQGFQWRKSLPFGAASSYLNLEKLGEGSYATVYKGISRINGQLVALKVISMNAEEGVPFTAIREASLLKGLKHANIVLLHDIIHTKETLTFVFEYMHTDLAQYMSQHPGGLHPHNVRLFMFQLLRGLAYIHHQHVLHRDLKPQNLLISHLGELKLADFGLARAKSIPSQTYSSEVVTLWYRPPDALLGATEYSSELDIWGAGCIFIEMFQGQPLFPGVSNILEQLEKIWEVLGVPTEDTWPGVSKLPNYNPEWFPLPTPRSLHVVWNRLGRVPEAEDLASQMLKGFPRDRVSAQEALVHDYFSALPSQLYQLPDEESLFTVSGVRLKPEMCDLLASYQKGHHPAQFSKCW
# Chain of CDK15/Cyclin Y (Q8ND76 whole entry partner): as the sequence (Q8ND76 whole entry partner) above
# CDK4/Cyclin D1 = CDK4/Cyclin D1 (Homo sapiens, UniProt P11802); assay: NanoBRET live-cell target engagement, NanoLuc-CDK4/Cyclin D1 in HEK-293; assay type: binding; conditions: CDK4/D1
# CDK1/Cyclin E1 = CDK1/Cyclin E1 (Homo sapiens, UniProt P06493); assay: NanoBRET live-cell target engagement, CDK1-NanoLuc/Cyclin E1 in HEK-293; assay type: binding; conditions: CDK1/E1, 10µM
# CDK20/Cyclin H = CDK20/Cyclin H (Homo sapiens, UniProt Q8IZL9); assay: NanoBRET live-cell target engagement, NanoLuc-CDK20/Cyclin H in HEK-293; assay type: binding; conditions: 10µM
# CDK16/Cyclin Y = CDK16/Cyclin Y (Homo sapiens, UniProt Q00536); assay: NanoBRET live-cell target engagement, CDK16-NanoLuc/Cyclin Y in HEK-293; assay type: binding; conditions: for IC50: CDK16/Y
# CDK5/CDK5R1 = CDK5/CDK5R1 (Homo sapiens, UniProt Q00535); assay: NanoBRET live-cell target engagement, CDK5-NanoLuc/CDK5R1 in HEK-293; assay type: binding; conditions: CDK5/CDK5R1, 10µM
# CDK14/Cyclin Y = CDK14/Cyclin Y (Homo sapiens, UniProt O94921); assay: NanoBRET live-cell target engagement, CDK14-NanoLuc/Cyclin Y in HEK-293; assay type: binding; conditions: for IC50: CDK14/Y
# Chain of CDK14/Cyclin Y (O94921 whole entry): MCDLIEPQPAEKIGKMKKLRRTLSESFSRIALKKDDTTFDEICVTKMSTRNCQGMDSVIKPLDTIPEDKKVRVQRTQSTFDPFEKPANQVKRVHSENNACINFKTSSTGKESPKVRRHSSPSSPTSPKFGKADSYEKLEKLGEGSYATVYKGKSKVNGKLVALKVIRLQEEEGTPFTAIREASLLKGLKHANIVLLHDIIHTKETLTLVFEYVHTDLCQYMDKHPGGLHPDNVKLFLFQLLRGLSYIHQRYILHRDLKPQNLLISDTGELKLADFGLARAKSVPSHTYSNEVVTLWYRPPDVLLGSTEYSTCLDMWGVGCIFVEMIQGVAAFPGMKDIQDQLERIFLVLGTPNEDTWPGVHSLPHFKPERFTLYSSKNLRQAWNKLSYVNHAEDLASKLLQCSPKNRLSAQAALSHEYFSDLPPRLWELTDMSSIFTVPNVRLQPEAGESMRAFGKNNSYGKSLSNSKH
# Chain of CDK14/Cyclin Y (Q8ND76 whole entry partner): as the sequence (Q8ND76 whole entry partner) above
# CDK18/Cyclin Y = CDK18/Cyclin Y (Homo sapiens, UniProt Q07002); assay: NanoBRET live-cell target engagement, CDK18-NanoLuc/Cyclin Y in HEK-293; assay type: binding; conditions: 10µM
# Chain of CDK18/Cyclin Y (Q07002 whole entry): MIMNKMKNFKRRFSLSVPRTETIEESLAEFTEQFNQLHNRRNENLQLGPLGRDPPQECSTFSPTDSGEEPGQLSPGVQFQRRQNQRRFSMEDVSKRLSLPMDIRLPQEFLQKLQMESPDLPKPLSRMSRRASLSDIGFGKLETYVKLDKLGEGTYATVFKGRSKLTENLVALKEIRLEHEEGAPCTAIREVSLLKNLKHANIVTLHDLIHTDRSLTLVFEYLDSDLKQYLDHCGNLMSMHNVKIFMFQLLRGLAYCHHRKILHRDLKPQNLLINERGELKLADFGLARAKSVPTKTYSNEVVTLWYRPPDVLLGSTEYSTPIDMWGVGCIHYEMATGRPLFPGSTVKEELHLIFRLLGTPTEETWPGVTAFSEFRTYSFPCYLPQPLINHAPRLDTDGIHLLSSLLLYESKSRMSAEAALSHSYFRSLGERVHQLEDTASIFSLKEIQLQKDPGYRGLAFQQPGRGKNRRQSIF
# Chain of CDK18/Cyclin Y (Q8ND76 whole entry partner): as the sequence (Q8ND76 whole entry partner) above
# CDK9/Cyclin K = CDK9/Cyclin K (Homo sapiens, UniProt P50750); assay: NanoBRET live-cell target engagement, NanoLuc-CDK9/Cyclin K in HEK-293; assay type: binding; conditions: CDK9/K, 10µM
# Chain of CDK9/Cyclin K (P50750 whole entry): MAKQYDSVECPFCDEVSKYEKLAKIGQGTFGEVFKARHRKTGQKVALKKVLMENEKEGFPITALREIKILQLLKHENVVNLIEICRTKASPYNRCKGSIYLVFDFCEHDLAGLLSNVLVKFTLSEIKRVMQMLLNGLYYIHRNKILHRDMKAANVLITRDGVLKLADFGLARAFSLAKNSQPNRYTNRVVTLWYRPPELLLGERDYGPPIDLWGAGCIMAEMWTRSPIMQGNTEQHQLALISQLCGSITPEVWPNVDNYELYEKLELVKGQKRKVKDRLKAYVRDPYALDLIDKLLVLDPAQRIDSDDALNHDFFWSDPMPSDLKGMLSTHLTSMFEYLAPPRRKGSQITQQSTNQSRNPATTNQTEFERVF
# Chain of CDK9/Cyclin K (O75909 whole entry partner): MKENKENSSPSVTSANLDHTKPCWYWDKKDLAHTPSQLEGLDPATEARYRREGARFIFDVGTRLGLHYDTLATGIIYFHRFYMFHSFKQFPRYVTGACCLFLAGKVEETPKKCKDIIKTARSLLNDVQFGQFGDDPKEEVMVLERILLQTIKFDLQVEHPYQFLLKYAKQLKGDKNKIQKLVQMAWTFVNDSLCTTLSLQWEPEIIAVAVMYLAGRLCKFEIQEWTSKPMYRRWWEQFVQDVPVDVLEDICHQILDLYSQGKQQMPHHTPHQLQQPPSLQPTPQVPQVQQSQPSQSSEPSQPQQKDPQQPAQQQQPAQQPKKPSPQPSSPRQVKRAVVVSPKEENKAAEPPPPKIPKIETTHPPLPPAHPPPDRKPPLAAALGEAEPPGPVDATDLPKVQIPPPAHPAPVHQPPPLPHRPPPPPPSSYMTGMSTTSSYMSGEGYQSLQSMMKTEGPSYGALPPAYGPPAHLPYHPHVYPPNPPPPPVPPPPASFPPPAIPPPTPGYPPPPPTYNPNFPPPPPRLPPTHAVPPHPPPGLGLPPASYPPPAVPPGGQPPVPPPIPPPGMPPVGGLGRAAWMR
# [1] = average of replicates, read-out: Inhibition at 10µM (%) Average
# [2] = read-out: Inhibition at 10µM (%) Replicate 1
# [3] = read-out: Inhibition at 10µM (%) Replicate 2
# [4] = n=3 average ± SEM, n=2 average to 2 significant figures, read-out: IC50 (nM) Average*
# [5] = read-out: IC50 (nM) Replicate 1
# [6] = read-out: IC50 (nM) Replicate 2
# [7] = read-out: IC50 (nM) Replicate 3
# Chain of CDK19/Cyclin C (Q9BWU1 whole entry): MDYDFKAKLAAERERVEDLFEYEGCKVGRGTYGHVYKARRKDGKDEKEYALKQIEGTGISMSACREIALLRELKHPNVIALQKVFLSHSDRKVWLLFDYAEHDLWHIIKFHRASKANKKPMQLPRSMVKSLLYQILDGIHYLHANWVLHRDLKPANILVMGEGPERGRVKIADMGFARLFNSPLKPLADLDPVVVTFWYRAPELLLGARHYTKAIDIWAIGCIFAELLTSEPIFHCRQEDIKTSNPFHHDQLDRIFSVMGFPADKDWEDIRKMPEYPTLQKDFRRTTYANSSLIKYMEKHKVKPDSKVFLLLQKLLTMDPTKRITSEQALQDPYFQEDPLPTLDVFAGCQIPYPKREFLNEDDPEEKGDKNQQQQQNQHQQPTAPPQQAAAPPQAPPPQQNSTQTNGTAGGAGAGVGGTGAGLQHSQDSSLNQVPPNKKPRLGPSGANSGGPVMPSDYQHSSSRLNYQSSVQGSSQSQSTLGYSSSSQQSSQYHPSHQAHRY
# Chain of CDK19/Cyclin C (P24863 whole entry partner): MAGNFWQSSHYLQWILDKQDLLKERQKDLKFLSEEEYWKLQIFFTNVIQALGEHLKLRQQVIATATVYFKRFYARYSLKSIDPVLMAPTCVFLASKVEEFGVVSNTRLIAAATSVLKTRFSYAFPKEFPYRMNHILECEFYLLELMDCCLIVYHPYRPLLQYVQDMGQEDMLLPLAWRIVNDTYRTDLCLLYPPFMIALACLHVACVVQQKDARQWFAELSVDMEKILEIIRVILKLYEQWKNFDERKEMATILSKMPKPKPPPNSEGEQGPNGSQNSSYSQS
structure (smiles),measurement,setting,value
C[C@H]1CC[C@H](n2c3cnccc3c3cnc(Nc4ccc5c(n4)CCN(C(=O)CO)C5)nc32)CC1 [AMG 925],inhibition at 10 µM,"CDK19/Cyclin C; read-out: Inhibition at 10µM (%) Average, CDK19/C, average of replicates",16.1%
same,inhibition at 10 µM,"CDK19/Cyclin C; read-out: Inhibition at 10µM (%) Replicate 1, CDK19/C",17.8%
same,inhibition at 10 µM,"CDK19/Cyclin C; read-out: Inhibition at 10µM (%) Replicate 2, CDK19/C",14.4%
same,inhibition at 10 µM,CDK6/Cyclin D1; [1],99.1%
same,inhibition at 10 µM,CDK6/Cyclin D1; [2],98.6%
same,inhibition at 10 µM,CDK6/Cyclin D1; [3],99.5%
same,IC50,CDK6/Cyclin D1; [4],7 ± 3 nM
same,IC50,CDK6/Cyclin D1; [5],2.5 nM
same,IC50,CDK6/Cyclin D1; [6],3.9 nM
same,IC50,CDK6/Cyclin D1; [7],13 nM
same,inhibition at 10 µM,CDK8/Cyclin C; [1],12.6%
same,inhibition at 10 µM,CDK8/Cyclin C; [2],13.8%
same,inhibition at 10 µM,CDK8/Cyclin C; [3],11.5%
same,inhibition at 10 µM,"CDK3/Cyclin E1; read-out: Inhibition at 10µM (%) Average, CDK3/E1, average of replicates",54.2%
same,inhibition at 10 µM,"CDK3/Cyclin E1; read-out: Inhibition at 10µM (%) Replicate 1, CDK3/E1",39.2%
same,inhibition at 10 µM,"CDK3/Cyclin E1; read-out: Inhibition at 10µM (%) Replicate 2, CDK3/E1",69.3%
same,inhibition at 10 µM,"CDK17/Cyclin Y; read-out: Inhibition at 10µM (%) Average, CDK17/Y, average of replicates",43.6%
same,inhibition at 10 µM,"CDK17/Cyclin Y; read-out: Inhibition at 10µM (%) Replicate 1, CDK17/Y",42.5%
same,inhibition at 10 µM,"CDK17/Cyclin Y; read-out: Inhibition at 10µM (%) Replicate 2, CDK17/Y",44.7%
same,inhibition at 10 µM,"CDK12/Cyclin K; read-out: Inhibition at 10µM (%) Average, CDK12/K, average of replicates",8%
same,inhibition at 10 µM,"CDK12/Cyclin K; read-out: Inhibition at 10µM (%) Replicate 1, CDK12/K",7.8%
same,inhibition at 10 µM,"CDK12/Cyclin K; read-out: Inhibition at 10µM (%) Replicate 2, CDK12/K",8.2%
same,inhibition at 10 µM,"CDK11B/Cyclin L2; read-out: Inhibition at 10µM (%) Average, CDK11b/L2, average of replicates",8.5%
same,inhibition at 10 µM,"CDK11B/Cyclin L2; read-out: Inhibition at 10µM (%) Replicate 1, CDK11b/L2",5.1%
same,inhibition at 10 µM,"CDK11B/Cyclin L2; read-out: Inhibition at 10µM (%) Replicate 2, CDK11b/L2",11.9%
same,inhibition at 10 µM,"CDK7; read-out: Inhibition at 10µM (%) Average, CDK7, average of replicates",27.8%
same,inhibition at 10 µM,"CDK7; read-out: Inhibition at 10µM (%) Replicate 1, CDK7",10.8%
same,inhibition at 10 µM,"CDK7; read-out: Inhibition at 10µM (%) Replicate 2, CDK7",44.9%
same,inhibition at 10 µM,CDK2/Cyclin E1; [1],63.9%
same,inhibition at 10 µM,CDK2/Cyclin E1; [2],40.8%
same,inhibition at 10 µM,CDK2/Cyclin E1; [3],87%
same,IC50,CDK2/Cyclin E1; [4],310 ± 70 nM
same,IC50,CDK2/Cyclin E1; [5],171 nM
same,IC50,CDK2/Cyclin E1; [6],400 nM
same,IC50,CDK2/Cyclin E1; [7],370 nM
same,inhibition at 10 µM,CDK13/Cyclin K; [1],-2.5%
same,inhibition at 10 µM,CDK13/Cyclin K; [2],3.8%
same,inhibition at 10 µM,CDK13/Cyclin K; [3],-8.8%
same,inhibition at 10 µM,"CDK10/Cyclin L2; read-out: Inhibition at 10µM (%) Average, CDK10/L2, average of replicates",2.1%
same,inhibition at 10 µM,"CDK10/Cyclin L2; read-out: Inhibition at 10µM (%) Replicate 1, CDK10/L2",1.6%
same,inhibition at 10 µM,"CDK10/Cyclin L2; read-out: Inhibition at 10µM (%) Replicate 2, CDK10/L2",2.6%
same,IC50,CDK15/Cyclin Y; [4],820 ± 50 nM
same,IC50,CDK15/Cyclin Y; [5],842 nM
same,IC50,CDK15/Cyclin Y; [6],720 nM
same,IC50,CDK15/Cyclin Y; [7],901 nM
same,inhibition at 10 µM,"CDK15/Cyclin Y; read-out: Inhibition at 10µM (%) Average, CDK15/Y, average of replicates",55.3%
same,inhibition at 10 µM,"CDK15/Cyclin Y; read-out: Inhibition at 10µM (%) Replicate 1, CDK15/Y",50.5%
same,inhibition at 10 µM,"CDK15/Cyclin Y; read-out: Inhibition at 10µM (%) Replicate 2, CDK15/Y",60.1%
same,inhibition at 10 µM,CDK4/Cyclin D1; [1],92.7%
same,inhibition at 10 µM,CDK4/Cyclin D1; [2],97.7%
same,inhibition at 10 µM,CDK4/Cyclin D1; [3],87.7%
same,IC50,CDK4/Cyclin D1; [4],6 ± 2 nM
same,IC50,CDK4/Cyclin D1; [5],3.2 nM
same,IC50,CDK4/Cyclin D1; [6],4.9 nM
same,IC50,CDK4/Cyclin D1; [7],11 nM
same,inhibition at 10 µM,CDK1/Cyclin E1; [1],34.5%
same,inhibition at 10 µM,CDK1/Cyclin E1; [2],45.4%
same,inhibition at 10 µM,CDK1/Cyclin E1; [3],23.6%
same,inhibition at 10 µM,"CDK20/Cyclin H; read-out: Inhibition at 10µM (%) Replicate 1, CDK20/H",24.8%
same,inhibition at 10 µM,"CDK20/Cyclin H; read-out: Inhibition at 10µM (%) Replicate 2, CDK20/H",6.8%
same,IC50,CDK16/Cyclin Y; [4],200 ± 100 nM
same,IC50,CDK16/Cyclin Y; [5],103 nM
same,IC50,CDK16/Cyclin Y; [6],420 nM
same,IC50,CDK16/Cyclin Y; [7],188 nM
same,inhibition at 10 µM,"CDK16/Cyclin Y; read-out: Inhibition at 10µM (%) Replicate 1, CDK16/Y",64.2%
same,inhibition at 10 µM,"CDK16/Cyclin Y; read-out: Inhibition at 10µM (%) Replicate 2, CDK16/Y",56.2%
same,inhibition at 10 µM,CDK5/CDK5R1; [1],22.1%
same,inhibition at 10 µM,CDK5/CDK5R1; [2],24.7%
same,inhibition at 10 µM,CDK5/CDK5R1; [3],19.6%
same,IC50,CDK14/Cyclin Y; [4],600 ± 200 nM
same,IC50,CDK14/Cyclin Y; [5],217 nM
same,IC50,CDK14/Cyclin Y; [6],690 nM
same,IC50,CDK14/Cyclin Y; [7],766 nM
same,inhibition at 10 µM,"CDK14/Cyclin Y; read-out: Inhibition at 10µM (%) Average, CDK14/Y, average of replicates",32.4%
same,inhibition at 10 µM,"CDK14/Cyclin Y; read-out: Inhibition at 10µM (%) Replicate 1, CDK14/Y",39%
same,inhibition at 10 µM,"CDK14/Cyclin Y; read-out: Inhibition at 10µM (%) Replicate 2, CDK14/Y",25.8%
same,inhibition at 10 µM,"CDK18/Cyclin Y; read-out: Inhibition at 10µM (%) Average, CDK18/Y, average of replicates",28.7%
same,inhibition at 10 µM,"CDK18/Cyclin Y; read-out: Inhibition at 10µM (%) Replicate 1, CDK18/Y",11.9%
same,inhibition at 10 µM,"CDK18/Cyclin Y; read-out: Inhibition at 10µM (%) Replicate 2, CDK18/Y",45.6%
same,inhibition at 10 µM,CDK9/Cyclin K; [1],39.8%
same,inhibition at 10 µM,CDK9/Cyclin K; [2],12.7%
same,inhibition at 10 µM,CDK9/Cyclin K; [3],67%
